Assay results taken from patent US20260284190A1, “METHODS FOR THE TREATMENT OF T-CELL ACUTE LYMPHOBLASTIC LEUKEMIA” (Institut Curie, priority 2023, published 2026).

Experiments:
T-ALL PDX cells = assay: Transcriptome profiling (Affymetrix microarray) of T-ALL PDX in response to anti-CD3; assay type: in vivo, NSG mice; settings: 40 μg, 6 hours; for expression of genes of interest (TNFR super family pathway, PD1): FIG. 1B; for TCR-induced signature: number of deregulated genes: 2X, p-value<0.05, common to both monoclonal antibodies, in vivo
Source text: Leukemic cells were then collected, flow-cytometry sorted, RNA isolated and analyzed using human Affymetrix arrays. […] FC: Fold Change. C RNA expression analysis (digitalized numeration of transcripts-mRNA) of genes of interest in M106 xenograft overtime after OKT3 treatment using Nanostring arrays: TNFα, LTα, TNFRSF9 (4-1BB), TNFRSF1B (TNFR2), TNFRSF4 (OX40) and PDCD1 (PD1). D Flow cytometry analysis of TNFRSF1B (TNFR2), TNFRSF1A (TNFR1), TNFRSF9 (4-1BB), TNFRSF4 (OX40) and PDCD1 (PD 1) cell surface expression in leukemic cells isolated from mice treated with 40μg of control IgG or OKT3 for 24h.
Total RNA was isolated from flow-cytometry-sorted leukemic cells (FSChi, hCD7+, hCD 45+) (6 hours following treatment with either 40 μg anti-CD 3 mAb or control IgG 2a antibody), using the Rneasy kit (QIAGEN). cRNA synthesis and hybridization of GeneChip Human Gene 2.0ST Array (Affymetrix) were according to the manufacturer's instructions, as described (http: //www-microarrays. u-strasbg. fr). A paired Student's t-test was performed to compare gene intensities in the different biological replicates. […] Hierarchical clustering analysis and pathway analyses on regulated genes (KEGG) were performed by Genosplice company.

[1] = tested on: caspase 8 activity in T-ALL cells; assay: Caspase 8 activity by flow cytometry in primary leukemic cells from treated leukemic mice; design: species or system NSG mice; settings: in vivo, 6 h; FIG. 2
Procedure: FIG. 2: Caspase 8 activity as measured by flow cytometry in primary leukemic cells collected from leukemic mice treated by control IgG (n=3) or anti-CD3 (OKT3) (n=3) mAbs for 6 h.
Cell suspensions prepared from mouse lymphoid organs, bone marrow, or blood were stained with fluorochrome-labeled antibodies and analyzed on a FACSCanto cytometer (BD Biosciences), as recommended by manufacturer. Data are analyzed using Diva, CellQuest (BD Biosciences) and FlowJo (TreeStar) softwares. Antibodies used are: CD7-FITC (4H9), CD45-APC (2D4) (eBioscience), PD1-Alexa Fluor 647 (EH12.2H7) (Biolegend).

[2] = tested on: TCRαβ+ and TCRγδ+ T-ALL patients-derived xenografts; settings: cited from earlier work
[3] = in vivo; cited from earlier work

In the case of “OKT3: anti-CD3ε monoclonal antibody (IgG2a)”, the “expression of genes of interest (TNFR super family pathway, PD1)” value (T-ALL PDX cells) is reported as “significantly upregulated”, the “TCR-induced signature: number of deregulated genes” value (T-ALL PDX cells) is reported as about 600 and the “caspase 8 activity in T-ALL cells” value [1] is reported as “fast induction”.
For foralumab: a fully human anti-CD3 mAb, the “final outcome of monotherapy” value ([2]; mice carrying TCR+ T-ALL PDX) is listed as “leukemia relapse and resistance to TCR-directed therapy”, the “anti-leukemic effects over time” value ([2]; monotherapy of T-ALL PDX) is listed as “profound anti-leukemic effects” and the host survival ([2]; monotherapy of T-ALL PDX) is listed as “improved host survival”. The leukemic cells apoptosis ([2]; monotherapy of T-ALL PDX) was “within hours”, the remission ([2]; monotherapy of T-ALL PDX) was “durable remission” and the “adverse effects in humans” value [3] was “only minor adverse effects”.
In the case of “teplizumab: a humanized, mutated version of OKT3 which is FDA-approved in prevention of type I diabetes”, the “expression of genes of interest (TNFR super family pathway, PD1)” value (T-ALL PDX cells) is listed as “significantly upregulated”, the “TCR-induced signature: number of deregulated genes” value (T-ALL PDX cells) is listed as about 600 and the “adverse effects in humans” value [3] is listed as “only minor adverse effects”.
